Laboratory results from US20260144882A1, “ANTI-NECTIN-4 ANTIBODY DRUG CONJUGATE AND USE THEREOF” (Bio-Thera Solutions, Ltd., priority 2022, published 2026).
Values joined by “and” are separate entries in the source; they are usually repeats but may differ in a detail not shown here. Identical values can stand only once.

How the values were obtained:
T-47D cells = test: Endocytosis efficiency assay by FACS; assay type: cell-based, human
Protocol: In this assay, the relative amount of antibodies remaining on the cell surface after co-incubation at 37° C. for a certain period of time was detected by FACS to reflect the endocytosis efficiency. The procedures are briefly described as follows: T-47D cells (human ductal breast cancer cells, derived from the Cell Bank of Chinese Academy of Sciences, Cat.No. TCHu 87); the antibodies of interest were adjusted to 10 µg/mL and co-incubated with the cells on ice for 1 h; the cells were washed 3 times with pre-cooled PBS, and then placed at 37° C. and incubated for 0 h, 2 h and 4 h; 0.2% N3Na was added to stop the endocytosis reaction; the cells were washed with PBS thrice, followed by the addition of the PE-labeled anti-human Fc secondary antibody (Invitrogen 12-4998-82); the cells were incubated at 4° C. for 30 min; the red fluorescence signal was detected on a flow cytometer.

[1] = biological target: T1, hNectin-4-His (human Nectin-4 extracellular antigen) (Homo sapiens, UniProt Q96NY8); test: SPR (BIAcore) affinity assay; assay type: binding
T1 construct: made in house
T1 sequence (Q96NY8 with tags, fused parts or gaps): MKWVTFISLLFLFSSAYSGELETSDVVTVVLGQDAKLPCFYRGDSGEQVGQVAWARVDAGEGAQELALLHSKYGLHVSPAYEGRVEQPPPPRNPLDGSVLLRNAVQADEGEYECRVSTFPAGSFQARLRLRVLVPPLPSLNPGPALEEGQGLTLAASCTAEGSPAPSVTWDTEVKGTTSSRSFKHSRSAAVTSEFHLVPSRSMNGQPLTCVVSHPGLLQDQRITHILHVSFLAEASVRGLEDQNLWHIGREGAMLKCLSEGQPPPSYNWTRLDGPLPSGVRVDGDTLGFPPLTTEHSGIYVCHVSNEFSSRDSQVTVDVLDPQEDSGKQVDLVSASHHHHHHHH
Protocol: In this study, the affinity of the antibodies for the human Nectin-4 extracellular antigen was detected by surface plasmon resonance (SPR) technique (BIAcore: GE Healthcare, T200).
Capture was performed using a Protein A chip (Cat #29127556, GE Healthcare), and 5 µg/mL antibody dilutions (in HBS-EP+(10×): GE Healthcare, Cat #BR-1006-69, with a working concentration of 1×) were directed through the experimental flow channels (Fc2 and Fc4) at a flow rate of 10 μL/min for 10 s; then, the flow rate was adjusted to 30 μL/min, the hNectin-4-His dilutions at different concentrations (0 nM, 1.23 nM, 3.7 nM, 11.1 nM, 33.3 nM, and 100 nM) were sequentially added, and simultaneously directed through the surfaces of the experimental flow channels (Fc2 and Fc4) and reference flow channels (Fc1 and Fc3) with an association time of 120 s and a dissociation time of 180 s, and finally, the chip was regenerated in Glycine 1.5.

mouse mNectin-4 protein = biological target: T2, mouse mNectin-4 protein (Mus musculus, UniProt Q8R007); test: Species specificity ELISA, mouse Nectin-4; assay type: binding; settings: in words
T2 construct: purchased ACRO NE4-M52H3
T2 sequence (Q8R007 31-508): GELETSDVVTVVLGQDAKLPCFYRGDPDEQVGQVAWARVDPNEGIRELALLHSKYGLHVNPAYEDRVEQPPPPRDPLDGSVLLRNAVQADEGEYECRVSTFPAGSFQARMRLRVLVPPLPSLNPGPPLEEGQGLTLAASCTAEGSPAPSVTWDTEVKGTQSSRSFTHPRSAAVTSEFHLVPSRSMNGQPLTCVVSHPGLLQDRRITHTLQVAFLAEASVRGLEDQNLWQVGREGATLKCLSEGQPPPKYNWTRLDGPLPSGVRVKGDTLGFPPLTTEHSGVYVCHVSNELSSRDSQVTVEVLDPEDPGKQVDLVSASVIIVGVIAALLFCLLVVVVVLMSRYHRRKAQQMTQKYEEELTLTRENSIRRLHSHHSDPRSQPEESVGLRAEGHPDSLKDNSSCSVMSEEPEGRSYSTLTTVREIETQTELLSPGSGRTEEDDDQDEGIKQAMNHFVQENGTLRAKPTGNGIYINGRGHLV
Protocol: The binding of different antibodies to different species of Nectin-4 proteins was detected by ELISA. hNectin-4-His, monkey cNectin-4 protein (ACRO, NE4-C52H4) and mouse mNectin-4 protein (ACRO, NE4-M52H3) were immobilized; antibodies ASG-22, 1F3, 1G8, 3A10, and 10F4 were serially diluted, and HRP-labeled anti-human-Kappa secondary antibody was added for chromogenic reaction.

**Q.** For “ASG-22: reference antibody; heavy chain SEQ ID NO: 5, light chain SEQ ID NO: 6 [reference compound]”, which “Endocytosis rate at 2 h” value (T-47D cells; Table 14) is on record?
**A.** Its value is 49.8%.

**Q.** And the “Endocytosis rate at 4 h” value (T-47D cells; Table 14)?
**A.** Its value is 74.1%.

**Q.** What about the “MFI (mean fluorescence intensity) 2 h” value (T-47D cells; Table 14, 37° C.) of the same substance?
**A.** The value was 53739.06.

**Q.** And the “MFI (mean fluorescence intensity) 4 h” value (T-47D cells; Table 14, 37° C.)?
**A.** The value was 27694.23.

**Q.** And the “Endocytosis rate at 2 h” value (T-47D cells; Table 15)?
**A.** Its value is 35.2%.

**Q.** And the “Endocytosis rate at 4 h” value (T-47D cells; Table 15)?
**A.** The value was 35.4%.

**Q.** What about the “MFI (mean fluorescence intensity) 0 h” value (T-47D cells; Table 15, 37° C., 0 h) of the same substance?
**A.** Its value is 58,591.2.

**Q.** And the “MFI (mean fluorescence intensity) 2 h” value (T-47D cells; Table 15, 37° C.)?
**A.** The value was 37,973.0.

**Q.** And the “MFI (mean fluorescence intensity) 4 h” value (T-47D cells; Table 15, 37° C.)?
**A.** The value was 37,844.0.

**Q.** And the “Ka” value ([1]; Table 12, association rate)?
**A.** Its value is 723000 M⁻¹ s⁻¹.

**Q.** What about the “Kd” value ([1]; Table 12, dissociation rate) of the same substance?
**A.** The value was 0.00436 s⁻¹.

**Q.** And the “ka” value ([1]; Table 13)?
**A.** Its value is 577000 M⁻¹ s⁻¹ and 540000 M⁻¹ s⁻¹.

**Q.** And the “kd” value ([1]; Table 13)?
**A.** Its value is 0.00581 s⁻¹ and 0.0059 s⁻¹.

**Q.** And the “binding to mouse Nectin-4” value (mouse mNectin-4 protein)?
**A.** The value was “weak binding”.
